This is an account of results in patent publication US20230203003A1, “Notch Inhibitors and Uses Thereof” (StemSynergy Therapeutics, Inc., priority 2020, published 2023).

Common to all, as to assay type: cell-based
For one experiment, the target named is T1, hNotch1ICD (Homo sapiens, UniProt P46531).
T1 construct: pLV[Tet]-Puro-TRE3G>Notch1-ICD; expressed in transfected cells; host or cells: 293A cells
The experiment in a line: Notch1 Reporter Assay (Dox-inducible Notch1-ICD, CSL-responsive luciferase in 293A cells). The note with it: read-out: Notch1 Reporter Assay IC50. The protocol: 293A cells expressing 1) pCMV-Tet-On 3G, 2) pLV[Tet]-Puro-TRE3G>Notch1-ICD, 3) pLV[Tet]-Puro-TRE3G>Notch2-ICD, 4) pLV[Tet]-Puro-TRE3G>Notch3-ICD, and 5) pCSL-RElement-Luc were used. When Doxycycline is added, the Tet-ON gene activates expression of hNotch1ICD, which together with endogenous NTC components binds to CSL responsive elements (pCSL-RElement-Luc) and expresses luciferase. 1 ×× 10^4 cells are plated in 100 µL (96-well format). 24 h later, compounds (10 mM stock in DMSO) are diluted in DMSO to 200X, then added (5 ul into 1 mL) to cell culture media containing 50 ng/mL Dox. This is then added 1:1 to cells. Final DMSO = 0.25%, Dox = 25 ng/mL. After 24 h, media is discarded, and cells are lysed in passive lysis buffer (Promega). Cells are rocked at room temperature for 15 min and then lysate is divided for luciferase assay (Luciferase Assay System, Promega) and cell viability (CellTiter Glo 2.0, Promega). Raw luciferase is normalized to cell viability, and then scaled to DMSO wells. Results are analyzed and IC50′s are determined in GraphPad by nonlinear regression curve fitting (4 parameter) of dose response curves.
Background: In a reporter assay the amount or activity of a reporter protein is the signal.

The subject of experiment [1] is OE33 Esophageal Adenocarcinoma cell line. In words: OE33 Colony Formation Assay. To be noted: Homo sapiens, OE33, 168 h, OE33 cells, 200 cells/well, 7 days, CellTiter-Glo. The protocol: OE33 Colony Formation Assay
The OE33 Esophageal Adenocarcinoma cell line was cultured and plated into 96-well tissue culture plates under sparse conditions (200 cells/well). Test compounds were serially diluted in DMSO and then into culture media (final DMSO concentration = 0.1%). Compound/media was then added to cells every 48 hours for a total of 7 days. Clonogenic growth was assessed using the CellTiter-Glo reagent, according to manufacturer (Promega) specifications. Percent inhibition was calculated as the percent of luminescence normalized to control (0.1% DMSO) wells. Nonlinear regression curve fitting was performed using GraphPad Prism software to determine EC50′s.

Another experiment has as its system Notch1. In words: Notch1 Reporter Assay.
Where [2] appears, read: 293A cells, 24 h, luciferase normalized to cell viability.

Molecules are shown by their SMILES. Structures can show the parent of a compound that is named as a salt. Where two headings read alike, the source gives them in different places.

T1 sequence (P46531 1754-2555 limits assumed): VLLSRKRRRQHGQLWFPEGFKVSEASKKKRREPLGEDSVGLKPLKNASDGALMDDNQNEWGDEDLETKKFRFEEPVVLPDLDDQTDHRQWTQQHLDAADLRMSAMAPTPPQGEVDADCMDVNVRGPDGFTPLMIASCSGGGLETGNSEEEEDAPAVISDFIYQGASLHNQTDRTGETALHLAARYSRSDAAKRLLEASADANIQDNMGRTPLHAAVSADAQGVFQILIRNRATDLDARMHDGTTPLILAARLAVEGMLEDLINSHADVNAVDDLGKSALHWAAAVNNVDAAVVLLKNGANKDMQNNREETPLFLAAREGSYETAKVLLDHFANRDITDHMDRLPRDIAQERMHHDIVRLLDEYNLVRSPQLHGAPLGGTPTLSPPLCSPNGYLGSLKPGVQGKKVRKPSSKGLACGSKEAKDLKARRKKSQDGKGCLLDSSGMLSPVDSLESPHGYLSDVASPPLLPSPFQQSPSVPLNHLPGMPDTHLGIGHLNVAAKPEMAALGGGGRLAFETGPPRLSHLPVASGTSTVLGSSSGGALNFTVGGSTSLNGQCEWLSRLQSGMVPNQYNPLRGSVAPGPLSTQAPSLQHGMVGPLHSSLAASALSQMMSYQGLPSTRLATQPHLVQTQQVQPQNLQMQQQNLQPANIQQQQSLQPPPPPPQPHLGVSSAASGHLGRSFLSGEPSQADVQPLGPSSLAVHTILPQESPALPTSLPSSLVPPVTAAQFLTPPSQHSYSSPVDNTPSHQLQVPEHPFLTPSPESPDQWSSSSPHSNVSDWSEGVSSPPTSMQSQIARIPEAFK

As to `CC(C)Cn1c(=O)c(C(=O)Nc2cccc(N3CCNCC3)c2)c(O)c2ccccc21` [compound 552, 4-hydroxy-1-isobutyl-2-oxo-N-(3-(piperazin-1-yl)phenyl)-1,2-dihydroquinoline-3-carboxamide trifluoro aceticacid], on hNotch1ICD (setting [2]), the IC50 (as a rule, the midpoint of a concentration-inhibition curve) was 4.3 µM. For the same molecule, a half-maximal response in experiment [1] (EC50) required 0.9 µM. Regarding `CC(C)Cn1c(=O)c(C(=O)Nc2cccc(N(C)C3CC3)c2)c(O)c2ccccc21` [compound 561, N-(3-(cyclopropyl(methyl)amino)phenyl)-4-hydroxy-1-isobutyl-2-oxo-1,2-dihydroquinoline-3-carboxamide], the half-inhibitory concentration (IC50) at hNotch1ICD (setting [2]) came out at 19.1 µM. The EC50 (in general, the concentration giving half of the maximal effect) in experiment [1] turned out to be 3.9 µM.

For the molecule `CC(C)Cn1c(=O)c(C(=O)Nc2cccc(F)c2)c(O)c2cc(N3CCN(C)CC3)ccc21` [577(02)], the IC50 on hNotch1ICD (setting [2]) was 6.4 µM. Further, the EC50 in experiment [1] worked out at 0.66 µM. The corresponding values for `CC(C)Cn1c(=O)c(C(=O)Nc2cccc(F)c2)c(O)c2ccccc21` [compound 538, N-(3-fluorophenyl)-4-hydroxy-1-isobutyl-2-oxo-1,2-dihydroquinoline-3-carboxamide] are 9.6 µM and 1.7 µM.

For the molecule `CC(C)Cn1c(=O)c(C(=O)Nc2cnn(C)c2)c(O)c2ccccc21` [compound 534, 4-hydroxy-1-isobutyl-N-(1-methyl-1H-pyrazol-4-yl)-2-oxo-1,2-dihydroquinoline-3-carboxamide], the half-inhibitory concentration (IC50) on hNotch1ICD (setting [2]) was determined as 11.3 µM. This molecule yielded an EC50 in experiment [1] of 2.5 µM. The corresponding values for `CC(C)Cn1c(=O)c(C(=O)Nc2cc(F)c(N3CCN(C)CC3)c(F)c2)c(O)c2ccccc21` [582(02)] are 1.9 µM and 1.1 µM.

On to `CC(C)Cn1c(=O)c(C(=O)Nc2ccccc2N2CCN(C)CC2)c(O)c2ccccc21` [568(02)], for which the IC50 on hNotch1ICD (setting [2]) worked out at 6.8 µM. Further, in experiment [1], a half-maximal response (EC50) required 2.6 µM.

Regarding `CC(C)Cn1c(=O)c(C(=O)Nc2ccc(F)c(N3CCN(C)CC3)c2)c(O)c2ccccc21` [584(02)], the IC50 on hNotch1ICD (setting [2]) came to 6 µM. In experiment [1], this molecule returned an EC50 of 2 µM.

On to `CC(C)Cn1c(=O)c(C(=O)Nc2ccc(F)cc2N2CCN(C)CC2)c(O)c2ccccc21` [570(02)], for which, on hNotch1ICD (setting [2]), the IC50 was 5.6 µM. In addition, the EC50 in experiment [1] stood at 2 µM.

Molecule `CC(C)Cn1c(=O)c(C(=O)Nc2cccc(N3CCN(C)CC3)c2)c(O)c2ccccc21` [SSTN-560, 4-hydroxy-1-isobutyl-N-(3-(4-methylpiperazin-1-yl)phenyl)-2-oxo-1,2-dihydroquinoline-3-carboxamide] yielded an IC50 in the experiment on Notch1 of 14.2 µM. For `CC(C)Cn1c(=O)c(C(=O)Nc2cc(F)ccn2)c(O)c2ccccc21` [compound 522, N-(4-fluoropyridin-2-yl)-4-hydroxy-1-isobutyl-2-oxo-1,2-dihydroquinoline-3-carboxamide], the IC50 at hNotch1ICD (setting [2]) is 17.2 µM. In experiment [1], this molecule showed an EC50 of 6 µM.

As for `CC(C)Cn1c(=O)c(C(=O)Nc2cccc(N3CCN(C)CC3)c2)c(O)c2ccccc21` [SSTN-560 Formate Salt, 4-Hydroxy-1-Isobutyl-N-(3-(4-Methylpiperazin-1-Yl)Phenyl)-2-Oxo-1,2-Dihydroquinoline-3-Carboxamide Formate Salt], the IC50 with Notch1 (Formate Salt) amounted to 10.2 µM.

With `CC(C)Cn1c(=O)c(C(=O)Nc2ccon2)c(O)c2ccccc21` [compound 525, 4-hydroxy-1-isobutyl-N-(isoxazol-3-yl)-2-oxo-1,2-dihydroquinoline-3-carboxamide], the IC50 at hNotch1ICD (setting [2]) worked out at 13.8 µM. In addition, the EC50 in experiment [1] is 7.4 µM.

On to `CC(C)Cn1c(=O)c(C(=O)Nc2cccc(F)c2)c(O)c2c(N3CCNCC3)cccc21` [SSTN-587_HCl salt, N-(3-fluorophenyl)-4-hydroxy-1-isobutyl-2-oxo-5-(piperazin-1-yl)-1,2-dihydroquinoline-3-carboxamide hydrochloride salt], for which the results for the IC50 on hNotch1ICD (setting [2]) and on hNotch1ICD (value printed in the synthesis heading of the compound) were 3.8 µM and 3.76 µM, respectively. For the same molecule, the EC50 in experiment [1] stood at 1.7 µM.

In the case of `CC(C)Cn1c(=O)c(C(=O)Nc2ccc(N3CCN(C)CC3)cc2)c(O)c2ccccc21` [569(02)], the IC50 on hNotch1ICD (setting [2]) was 4.9 µM. The EC50 in experiment [1] is 1.8 µM. On to `CC(C)Cn1c(=O)c(C(=O)Nc2cccc(N3CCN(C)CC3)c2)c(O)c2ccccc21` [SSTN-560_HCI salt, 4-hydroxy-1-isobutyl-N-(3-(4-methylpiperazin-1-yl)phenyl)-2-oxo-1,2-dihydroquinoline-3-carboxamide], for which the midpoint of inhibition in the experiment with Notch1, the IC50, lay at 7.7 µM.

As for `CC(C)Cn1c(=O)c(C(=O)Nc2cc(F)ccc2N2CCN(C)CC2)c(O)c2ccccc21` [571(02)], the IC50 on hNotch1ICD (setting [2]) came out at 7.9 µM. For the same molecule, the EC50 in experiment [1] turned out to be 2.5 µM.
